What was measured:
Assay in all cases: relative viability (nuclei count vs DMSO), 5 days (fraction); higher = more cells survive
[1] = compound: CC1CC(=O)N(C2=CN=C(N=C2N1C3CCCC3)NC4=C(C=C(C=C4)C(=O)NC5CCN(CC5)C)OC)C [NPK76-II-72-1] + CC(C)C[C@H](NC(=O)[C@H](Cc1ccccc1)NC(=O)c1cnccn1)B(O)O [Bortezomib] (partner 0.002 µM)
In short: (§1)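 One day after seeding in 1536-well plates, lung cancer cell lines were dosed by pin tool. Dosing was either single-drug or a fixed anchor-drug dose plus five library-drug doses (not always all listed) in √10 steps. After 5 days, nuclei were stained in one fix-and-stain step and counted on 4× images, and relative viability is the nuclei count of treated wells over that of vehicle wells, given as the median of duplicate plates.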

BI-2536 + Phenformin = compound: CC[C@@H]1C(=O)N(C)c2cnc(Nc3ccc(C(=O)NC4CCN(C)CC4)cc3OC)nc2N1C1CCCC1 [BI-2536] + N=C(N)NC(=N)NCCc1ccccc1 [Phenformin] (partner 250 µM)
In short: as §1

[2] = compound: CC1CC(=O)N(C2=CN=C(N=C2N1C3CCCC3)NC4=C(C=C(C=C4)C(=O)NC5CCN(CC5)C)OC)C [NPK76-II-72-1] + CC1(C)CCC(c2ccc(Cl)cc2)=C(CN2CCN(c3ccc(C(=O)NS(=O)(=O)c4ccc(N[C@H](CCN5CCOCC5)CSc5ccccc5)c(S(=O)(=O)C(F)(F)F)c4)cc3)CC2)C1 [Navitoclax] (partner 0.5 µM)
In short: as §1

[3] = compound: CC1CC(=O)N(C2=CN=C(N=C2N1C3CCCC3)NC4=C(C=C(C=C4)C(=O)NC5CCN(CC5)C)OC)C [NPK76-II-72-1] + Nc1nc2[nH]cc(CCc3ccc(C(=O)N[C@@H](CCC(=O)O)C(=O)O)cc3)c2c(=O)[nH]1 [Pemetrexed] (partner 0.2 µM)
In short: as §1

Cell Line | relative viability ([1]; first compound 0.01 µM) | relative viability ([1]; first compound 0.03162 µM) | relative viability ([1]; first compound 0.1 µM) | relative viability ([1]; first compound 0.3162 µM) | relative viability ([1]; first compound 1 µM) | relative viability (BI-2536 + Phenformin; first compound 0.01 µM) | relative viability (BI-2536 + Phenformin; first compound 0.03162 µM) | relative viability (BI-2536 + Phenformin; first compound 0.1 µM) | relative viability (BI-2536 + Phenformin; first compound 0.3162 µM) | relative viability (BI-2536 + Phenformin; first compound 1 µM) | relative viability ([2]; first compound 0.01 µM) | relative viability ([2]; first compound 0.03162 µM) | relative viability ([2]; first compound 0.1 µM) | relative viability ([2]; first compound 0.3162 µM) | relative viability ([2]; first compound 1 µM) | relative viability ([3]; first compound 0.01 µM) | relative viability ([3]; first compound 0.03162 µM) | relative viability ([3]; first compound 0.1 µM) | relative viability ([3]; first compound 0.3162 µM) | relative viability ([3]; first compound 1 µM)
NCI-H2085 | 1.05 | 1.01 | 0.977 | 0.953 | 1.02 | 0.785 | 0.69 | 0.307 | 0.183 | 0.243 | 1.11 | 1.12 | 1.06 | 1.06 | 1.19 | 0.855 | 0.946 | 0.972 | 0.915 | 0.974
NCI-H2087 | 0.941 | 0.861 | 0.63 | 0.737 | 0.82 | 0.477 | 0.503 | 0.173 | 0.0945 | 0.102 | 0.972 | 1.02 | 0.997 | 0.919 | 1.06 | 0.66 | 0.653 | 0.588 | 0.661 | 0.63
NCI-H2126 | 1.01 | 1.16 | 1.11 | 1.07 | 1.16 | 0.5 | 0.495 | 0.231 | 0.279 | 0.247 | 0.82 | 0.857 | 0.874 | 0.799 | 0.881 | 0.678 | 0.809 | 0.617 | 0.672 | 0.736
NCI-H2228 | 0.799 | 0.81 | 0.935 | 0.942 | 1.31 | 0.328 | 0.214 | 0.129 | 0.106 | 0.102 | 0.509 | 1.06 | 1.14 | 0.794 | 0.932 | 0.307 | 0.359 | 0.33 | 0.339 | 0.343
NCI-H2347 | 0.827 | 1.24 | 0.697 | 0.756 | 1.01 | – | 0.28 | 0.382 | 0.276 | 0.211 | 0.761 | 0.698 | 0.728 | 0.789 | 0.868 | 0.502 | 0.42 | 0.417 | 0.403 | 0.354
NCI-H2405 | 1.01 | 0.99 | 0.921 | 0.753 | 1.11 | 0.378 | 0.377 | 0.321 | 0.153 | 0.243 | 0.834 | 0.965 | 0.806 | 0.844 | 1.17 | 1.04 | 1.01 | 0.956 | 1.08 | 1.06
NCI-H3122 | 1 | 1.01 | 0.935 | 1.03 | 1.02 | 0.38 | 0.34 | 0.137 | 0.158 | 0.127 | 1.01 | 0.988 | 1 | 1.05 | 1.02 | 0.209 | 0.191 | 0.181 | 0.195 | 0.209
PC-3 [JPC-3] | 0.83 | 0.897 | 0.581 | 0.778 | 0.81 | 0.477 | 0.461 | 0.271 | 0.202 | 0.176 | 0.742 | 0.806 | 0.735 | 0.672 | 0.848 | 0.963 | – | 1.06 | 1.18 | 1.1
PC-14 | 0.809 | 0.849 | 0.892 | 0.839 | 1.08 | 0.651 | 0.551 | 0.224 | 0.0459 | 0.0271 | 1 | 1.06 | 1.03 | 0.948 | 1.07 | 0.124 | 0.126 | 0.125 | 0.123 | 0.162
RERF-LC-KJ | 1.11 | 1.11 | 1.07 | 0.916 | 1.08 | 0.403 | 0.297 | 0.216 | 0.211 | 0.224 | 0.878 | 0.925 | 1.17 | 0.851 | 1.14 | 0.469 | 0.505 | 0.46 | 0.439 | 0.506
SK-LU-1 | 0.931 | 1.15 | 0.829 | 1.23 | 1.42 | 0.577 | 0.321 | 0.209 | 0.12 | 0.151 | 0.747 | 0.996 | 1.31 | 0.168 | 0.838 | 0.972 | 1.05 | 0.925 | 1.03 | 1.04
SW 1573 | 1.13 | 1.04 | 0.822 | 1.04 | 1.27 | 0.333 | 0.283 | 0.131 | 0.106 | 0.0811 | 1.03 | 0.973 | 0.812 | 0.948 | 0.988 | 0.751 | 0.829 | 0.821 | 0.849 | 0.824

Reference: the supplement of paper PMC10307832
